We go through four molecules from publication PMC8469034, “Catalytic Asymmetry in Homodimeric H^+-Pumping Membrane Pyrophosphatase Demonstrated by Non-Hydrolyzable Pyrophosphate Analogs” (International Journal of Molecular Sciences, 2021).

Like-named read-outs stand apart in the source and are kept apart here.

As usually defined, the Km is the substrate concentration at which the rate is half of its maximum.

Data set [1] concerns the target T1, Dh-mPPase (Desulfitobacterium hafniense, UniProt B8FXV7).
T1 construct: gene hppA; full-length membrane protein expressed in E. coli C41(DE3)ril, assayed in inverted membrane vesicles; homodimer; K+-dependent H+-transporting, EC 7.1.3.1
T1 sequence (B8FXV7 1-671): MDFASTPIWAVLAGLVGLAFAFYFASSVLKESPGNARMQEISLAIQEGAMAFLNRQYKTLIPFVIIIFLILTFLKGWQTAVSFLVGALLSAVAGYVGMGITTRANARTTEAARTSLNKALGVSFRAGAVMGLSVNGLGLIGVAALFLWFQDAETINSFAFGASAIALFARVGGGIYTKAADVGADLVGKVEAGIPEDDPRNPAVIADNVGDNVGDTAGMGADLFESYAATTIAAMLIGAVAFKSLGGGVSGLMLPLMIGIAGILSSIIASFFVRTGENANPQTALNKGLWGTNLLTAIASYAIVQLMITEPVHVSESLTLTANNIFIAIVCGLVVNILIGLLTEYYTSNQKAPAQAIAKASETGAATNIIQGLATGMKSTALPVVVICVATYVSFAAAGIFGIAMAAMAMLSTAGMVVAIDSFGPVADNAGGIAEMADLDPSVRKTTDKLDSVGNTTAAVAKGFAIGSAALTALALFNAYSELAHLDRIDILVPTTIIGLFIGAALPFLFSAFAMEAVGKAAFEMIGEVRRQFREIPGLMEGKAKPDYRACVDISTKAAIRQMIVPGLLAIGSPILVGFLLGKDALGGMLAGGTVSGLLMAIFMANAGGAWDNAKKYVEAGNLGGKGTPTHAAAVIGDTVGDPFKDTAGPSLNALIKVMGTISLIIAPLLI
Description: continuous Pi analyzer assay of PPi hydrolysis, inverted membrane vesicles, global fit. The class given is biochemical. An excerpt:
continuous Pi analyzer assay of PPi hydrolysis, inverted membrane vesicles, global fit on Dh-mPPase

Substrate in data set [2]: O=P(O)(O)OP(=O)(O)O
Description: cells, lysate or membranes. As to conditions: varied free Mg2+ (extrapolated to Mg2+ saturation), 50 mM K+, 0.1 M MOPS-KOH pH 7.2, 25 °C, no inhibitor, first site of dimer, macroscopic, substrate counted as Mg2PPi. The class given is biochemical, Desulfitobacterium hafniense.

As for `CC(O)(P(=O)(O)O)P(=O)(O)O` [HEDP], the Ki in data set [1] (read-out: Value / HEDP) came to 27 ± 1 µM.

For the molecule `O=P(O)(O)NP(=O)(O)O` [IDP], the Ki in data set [1] (read-out: Value / IDP) was 4.2 ± 0.2 µM.

On to `NC(P(=O)(O)O)P(=O)(O)O` [AMDP], for which the Ki in data set [1] (read-out: Value / AMDP) worked out at 0.4 ± 0.02 µM.

B1: Dh-mPPase (Desulfitobacterium hafniense DCB-2) (protein)
chain: T1 sequence (B8FXV7 1-671)
notes: full-length membrane protein expressed in E. coli C41(DE3)ril, assayed in inverted membrane vesicles; homodimer; K+-dependent H+-transporting, EC 7.1.3.1
On to B1, for which the Km in data set [2] is reported as 2.2 ± 0.1 µM.
